Assay results as given in patent publication US20040086901A1, “Database for analyzing gene function and method of analyzing gene function by dspa” (priority 2000, published 2004).
Non-standard residues stand in square brackets, D forms with d. Residues, ends and D or L forms follow the SMILES beside them. Nle = CCCC[C@H](N)C(=O)O

Columns and labels:
Type in all cases: cell-based, mouse
[1] = system: NIH3T3 cells overexpressing Ki-ras; experiment: MTT cell viability, Ki-ras overexpressing cells vs parental line; details: Ki-ras high-expressing cells / parental cell line, 3 to 4 days
Procedure: (§1) With regard to the function-known genes, the genes shown in the left column of Table 2 were used. With regard to the drugs, those shown in Table 1 were dissolved in DMSO to an extent of 100-fold of the maximum concentration for the search of the drugs and used. With regard to the cells, incubated NIH3T3 or ras-NIH3T3 cells were used.
(§2) Full-length cDNA of each function-known genes was incorporated into an expression vector (pRc-CMV, etc.) and transfected into NIH3T3 cells by a common method. Transformed cells were isolated using the resistance to G-418 as an index and the expression of the transfected gene in each cell was investigated by Western blotting method to select a highly expressing line.
(§3) Cell viabilities were measured according to the following procedures.
(§4) 1) From the 2nd to the 11th rows of a 96-well plate were filled with DMEM (50 μl). The 12th row was filled with 100 μl of DMEM.
(§5) 2) The 1st row was filled with 98 μl of DMEM.
(§6) 3) Drugs (2 μl each) were added into the 1st row.
(§7) 4) Continuous double-dilution was conducted from the 1st to the 9th rows. Fifty μl were taken out from the 9th row and discarded. The plate was preserved in a CO2 incubator.
(§8) 5) Cells (each high-expressing cells and the parental cell line) were detached from the medium using a trypsin solution, suspended in 10% CS-DMEM and transferred to a test tube and cell numbers (cell/ml) were counted.
(§9) 6) The cells were diluted to a concentration of 1×10^5 cells/ml, and 50 μl of the cell suspension were added to the 1st to the 11th rows of the plate followed by gently stirring.
(§10) 7) The plate was transferred to the CO2 incubator and incubated for 3 to 4 days.
(§11) 8) MTT (5 mg/ml in PBS) (10 μl) was added to the 1st to the 12th rows of the plate and incubated in the CO2 incubator at 37° C. for 4 hours.
(§12) 9) A reaction stop solution (0.04N HCl in isopropanol) (150 μl) was added followed by mixing well and being allowed to stand at room temperature for about 2 hours.
(§13) 10) Coloration of formazan which was a metabolite of the MTT dye was measured using a microplate reader. The measurement wavelength was 574 nm and the reference wavelength was 655 nm. The 10th and the 11th rows of the plate were 100% controls and the 12th row was a 0% control.
(§14) As an index for the sensitivity of highly gene-expressing cells and the parental cell line to various drugs, each of the IC40 values thereof was specified and ratios of the IC40 values were calculated. FIG. 2 and FIG. 3 are the examples where ratios of IC40 values were calculated from a curve showing the dependency on the concentration of the chemical versus the viability. After that, logarithmic values of ratios of IC40 values were calculated from each gene.

[2] = system: NIH3T3 cells overexpressing p38-DN; experiment: MTT cell viability, p38-DN overexpressing cells vs parental line; details: p38-DN high-expressing cells / parental cell line, 3 to 4 days
Procedure: as §1, §2, §3, §4, §5, §6, §7, §8, §9, §10, §11, §12, §13
(§15) As an index for the sensitivity of highly gene-expressing cells and the parental cell line to various drugs, each of the IC40 values thereof was specified and ratios of the IC40 values were calculated. […] After that, logarithmic values of ratios of IC40 values were calculated from each gene.

[3] = system: NIH3T3 cells overexpressing caspase-1; experiment: MTT cell viability, caspase-1 overexpressing cells vs parental line; details: caspase-1 high-expressing cells / parental cell line, 3 to 4 days
Procedure: as §1, §2, §3, §4, §5, §6, §7, §8, §9, §10, §11, §12, §13, §15

[4] = system: NIH3T3 cells overexpressing TK; experiment: MTT cell viability, TK overexpressing cells vs parental line; details: TK high-expressing cells / parental cell line, 3 to 4 days
Procedure: as §1, §2, §3, §4, §5, §6, §7, §8, §9, §10, §11, §12, §13, §14

[5] = system: NIH3T3 cells overexpressing CP-antisense; experiment: MTT cell viability, CP-antisense cells vs parental line; details: 3 to 4 days
Procedure: as §1, §2, §3, §4, §5, §6, §7, §8, §9, §10, §11, §12, §13, §14

[6] = system: NIH3T3 cells overexpressing Bax; experiment: MTT cell viability, Bax overexpressing cells vs parental line; details: 3 to 4 days
Procedure: as §1, §2, §3, §4, §5, §6, §7, §8, §9, §10, §11, §12, §13, §15

[7] = system: NIH3T3 cells overexpressing calpastatin; experiment: MTT cell viability, calpastatin overexpressing cells vs parental line; details: calpastatin high-expressing cells / parental cell line, 3 to 4 days
Procedure: as §1, §2, §3, §4, §5, §6, §7, §8, §9, §10, §11, §12, §13, §14

[8] = system: NIH3T3 cells overexpressing CaMKIIa; experiment: MTT cell viability, CaMKIIa overexpressing cells vs parental line; details: CaMKIIa high-expressing cells / parental cell line, 3 to 4 days
Procedure: as §1, §2, §3, §4, §5, §6, §7, §8, §9, §10, §11, §12, §13, §15

[9] = system: NIH3T3 cells overexpressing cystatin E; experiment: MTT cell viability, cystatin E overexpressing cells vs parental line; details: cystatin E high-expressing cells / parental cell line, 3 to 4 days
Procedure: as §1, §2, §3, §4, §5, §6, §7, §8, §9, §10, §11, §12, §13, §14

[10] = system: NIH3T3 cells overexpressing HNF1; experiment: MTT cell viability, HNF1 overexpressing cells vs parental line; details: HNF1 high-expressing cells / parental cell line, 3 to 4 days
Procedure: as §1, §2, §3, §4, §5, §6, §7, §8, §9, §10, §11, §12, §13, §15

[11] = system: NIH3T3 cells overexpressing coup; experiment: MTT cell viability, coup overexpressing cells vs parental line; details: coup high-expressing cells / parental cell line, 3 to 4 days
Procedure: as §1, §2, §3, §4, §5, §6, §7, §8, §9, §10, §11, §12, §13, §14

[12] = system: NIH3T3 cells overexpressing PDGF-R; experiment: MTT cell viability, PDGF-R overexpressing cells vs parental line; details: PDGF-R high-expressing cells / parental cell line, 3 to 4 days
Procedure: as §1, §2, §3, §4, §5, §6, §7, §8, §9, §10, §11, §12, §13, §14

[13] = system: NIH3T3 cells overexpressing caspase-2; experiment: MTT cell viability, caspase-2 overexpressing cells vs parental line; details: caspase-2 high-expressing cells / parental cell line, 3 to 4 days
Procedure: as §1, §2, §3, §4, §5, §6, §7, §8, §9, §10, §11, §12, §13, §14

[14] = system: NIH3T3 cells overexpressing p33/ING1; experiment: MTT cell viability, p33/ING1 overexpressing cells vs parental line; details: p33/ING1 high-expressing cells / parental cell line, 3 to 4 days
Procedure: as §1, §2, §3, §4, §5, §6, §7, §8, §9, §10, §11, §12, §13, §14

[15] = system: NIH3T3 cells overexpressing v-src; experiment: MTT cell viability, v-src overexpressing cells vs parental line; details: v-src high-expressing cells / parental cell line, 3 to 4 days
Procedure: as §1, §2, §3, §4, §5, §6, §7, §8, §9, §10, §11, §12, §13, §14

[16] = system: NIH3T3 cells overexpressing Regucalcin; experiment: MTT cell viability, Regucalcin overexpressing cells vs parental line; details: Regucalcin high-expressing cells / parental cell line, 3 to 4 days
Procedure: as §1, §2, §3, §4, §5, §6, §7, §8, §9, §10, §11, §12, §13, §14

[17] = system: NIH3T3 cells overexpressing STAT1; experiment: MTT cell viability, STAT1 overexpressing cells vs parental line; details: STAT1 high-expressing cells / parental cell line, 3 to 4 days
Procedure: as §1, §2, §3, §4, §5, §6, §7, §8, §9, §10, §11, §12, §13, §15

[18] = system: NIH3T3 cells overexpressing CBP8; experiment: MTT cell viability, CBP8 overexpressing cells vs parental line; details: CBP8 high-expressing cells / parental cell line, 3 to 4 days
Procedure: as §1, §2, §3, §4, §5, §6, §7, §8, §9, §10, §11, §12, §13, §14

[19] = system: NIH3T3 cells overexpressing HNF4; experiment: MTT cell viability, HNF4 overexpressing cells vs parental line; details: HNF4 high-expressing cells / parental cell line, 3 to 4 days
Procedure: as §1, §2, §3, §4, §5, §6, §7, §8, §9, §10, §11, §12, §13, §15

[20] = system: NIH3T3 cells overexpressing erbB2; experiment: MTT cell viability, erbB2 overexpressing cells vs parental line; details: erbB2 high-expressing cells / parental cell line, 3 to 4 days
Procedure: as §1, §2, §3, §4, §5, §6, §7, §8, §9, §10, §11, §12, §13, §14

[21] = Bax (first of two Bax lines) high-expressing cells / parental cell line
[22] = Bax (second of two Bax lines) high-expressing cells / parental cell line

Row | Structure (SMILES) | logarithmic value of ratio of IC40 values [1] | logarithmic value of ratio of IC40 values [2] | logarithmic value of ratio of IC40 values [3] | logarithmic value of ratio of IC40 values [4] | logarithmic value of ratio of IC40 values [5] | logarithmic value of ratio of IC40 values [6, 21] | logarithmic value of ratio of IC40 values [6, 22] | logarithmic value of ratio of IC40 values [7] | logarithmic value of ratio of IC40 values [8] | logarithmic value of ratio of IC40 values [9] | logarithmic value of ratio of IC40 values [10] | logarithmic value of ratio of IC40 values [11] | logarithmic value of ratio of IC40 values [12] | logarithmic value of ratio of IC40 values [13] | logarithmic value of ratio of IC40 values [14] | logarithmic value of ratio of IC40 values [15] | logarithmic value of ratio of IC40 values [16] | logarithmic value of ratio of IC40 values [17] | logarithmic value of ratio of IC40 values [18] | logarithmic value of ratio of IC40 values [19] | other results
1 | CCCC[C@@H](C=O)NC(=O)[C@H](CC(C)C)NC(=O)[C@H](CC(C)C)NC(C)=O [ALLN] (Ac-Leu-Leu-[Nle]-aldehyde) | 0.11 | 0.04 | −0.04 | 0.00 | 0.00 | −0.10 | 0.11 | 0.10 | 0.00 | 0.19 | 0.16 | 0.06 | 0.22 | −0.04 | 0.08 | 0.10 | 0.00 | 0.17 | 0.11 | −0.15 | logarithmic value of ratio of IC40 values [20]: −0.05
2 | CC(=O)OCOC(=O)CN(CC(=O)OCOC(C)=O)c1ccccc1OCCOc1ccccc1N(CC(=O)OCOC(C)=O)CC(=O)OCOC(C)=O [BAPTA-AM] | −0.15 | 0.00 | 0.60 | 0.00 | 0.06 | 0.15 | 0.00 | 0 | −0.12 | −0.02 | 0.20 | 0.09 | 0.29 | 0.23 | 0.00 | −0.22 | −0.39 | 0.10 | 0.00 | −0.10 | logarithmic value of ratio of IC40 values [20]: −0.40
3 | C[C@@H]1C[C@@H]([C@H](O)CC2CC(=O)NC(=O)C2)C(=O)[C@@H](C)C1 [CHX, cycloheximide] | −0.43 | 0.04 | −0.05 | −0.13 | 0.00 | −0.08 | 0.00 | 0.31 | 0.04 | 0.00 | 0.38 | 0.12 | 0.51 | 0.74 | −0.30 | −0.32 | 0.08 | 0.00 | 0.00 | 0.22 | logarithmic value of ratio of IC40 values [20]: −0.64
4 | C=C[C@@]1(C)CC(=O)[C@]2(O)[C@@]3(C)[C@@H](O)CCC(C)(C)[C@@H]3[C@H](O)[C@H](OC(C)=O)[C@@]2(C)O1 [Forskolin, forskolin] | 0.36 | −0.46 | 0.34 | 0.56 | −0.05 | 0.00 | −0.26 | −0.09 | 0.00 | 0.29 | 1.15 | 0.78 | 0.16 | −0.34 | 0.63 | −0.46 | −0.10 | 0.51 | 0.40 | 0.00 | logarithmic value of ratio of IC40 values [20]: 0.28
5 | O=c1c(-c2ccc(O)cc2)coc2cc(O)cc(O)c12 [Genistein, genistein] | 0.00 | 0.00 | −0.12 | 0.08 | 0.00 | 0.20 | 0.38 | 0.127 | −0.15 | 0.21 | 0.234 | 0.44 | 0.32 | 0.30 | 0.78 | −0.60 | 0.00 | 0.10 | 0.10 | −0.15 | logarithmic value of ratio of IC40 values [20]: −0.60
